Assay type in all cases: in vivo
Holding throughout (conditions): 312 h, rate 250 g/ha, evaluated after 13 days, 100=total damage to plant, 0=no damage to plant

The test system of assay [1] is Alopecurus myosuroides (ALOMY). The assay can be described thus: Post-emergence herbicidal activity, glasshouse pot test. As for the experimental part: (§1) Seeds of a variety of test species were sown in standard soil in pots. After cultivation for one day (pre-emergence) or after 8 days cultivation (post-emergence) under controlled conditions in a glasshouse (at 24/16° C., day/night; 14 hours light; 65% humidity), the plants were sprayed with an aqueous spray solution derived from the formulation of the technical active ingredient in acetone/water (50:50) solution containing 0.5% Tween 20 (polyoxyethelyene sorbitan monolaurate, CAS RN 9005-64-5). The test plants were then grown in a glasshouse under controlled conditions in a glasshouse (at 24/16° C., day/night; 14 hours light; 65% humidity) and watered twice daily. After 13 days for pre and post-emergence, the test was evaluated (100=total damage to plant; 0=no damage to plant). Test Plants: Lolium perenne (LOLPE), Alopecurus myosuroides (ALOMY), Echinochloa crus-galli (ECHCG), and Avena fatua (AVEFA). Post-Emergence Activity

Assay [2] has as its system Lolium perenne (LOLPE). Described as above. As for the experimental part: as §1
Assay [3] relates to Echinochloa crus-galli (ECHCG). The assay is described as above. As to the method: as §1
Assay [4] relates to Avena fatua (AVEFA). The description is as above. As to the method:
as §1

Assay [5] relates to Alopecurus myosuroides (ALOMY). The assay can be described thus: Pre-emergence herbicidal activity, glasshouse pot test. As for the experimental part: as §1, with “Pre-Emergence” for “Post-Emergence”
Assay [6] has as its system Lolium perenne (LOLPE). The description is as above. As to the method: as §1, with “Pre-Emergence” for “Post-Emergence”
Assay [7] concerns Echinochloa crus-galli (ECHCG). Described as above. As for the experimental part: as §1, with “Pre-Emergence” for “Post-Emergence”
For assay [8], the system named is Avena fatua (AVEFA). The description is as above. As for the experimental part:
as §1, with “Pre-Emergence” for “Post-Emergence”

Consider `CCc1ccc(Oc2ccc(F)cc2)cc1C1=C(O)[C@H]2[C@H]3CC[C@H](C3)[C@H]2C1=O` [Compound A-23], for which the pest or weed control (as a rule, how far the test organism was held down) at 250 g/ha in assay [1] worked out at 50%; in assay [2], 20%; in assay [3] it was 60%; in assay [4], 0%; in assay [5], 0%; in assay [6] it was 30%. The pest or weed control at 250 g/ha in assay [7] stood at 80%; in assay [8], 0%.
For `CCc1ccc(Oc2ccc(Cl)cc2)cc1C1=C(O)[C@H]2[C@H]3CC[C@H](C3)[C@H]2C1=O` [Compound A-24], the pest or weed control at 250 g/ha in assay [1] came to 60%; in assay [2], 60%; in assay [3], 100%; in assay [4], 70%; in assay [5], 10%; in assay [6], 40%. Besides, the results for the pest or weed control at 250 g/ha in assay [7] and in assay [8] were 50% and 30%, respectively.
Consider `CCc1ccc(Oc2ccc(Cl)cc2F)cc1C1=C(O)[C@H]2[C@H]3CC[C@H](C3)[C@H]2C1=O` [Compound A-25], for which the pest or weed control at 250 g/ha worked out at 50% in assay [1]; 60% in assay [2]; 90% in assay [3]; 40% in assay [4]; 20% in assay [5]; 70% in assay [6]. Also, the pest or weed control at 250 g/ha was determined as 70% in assay [7] and 30% in assay [8].
Take `CCc1ccc(Oc2ccc(Cl)c(F)c2)cc1C1=C(O)[C@H]2[C@H]3CC[C@H](C3)[C@H]2C1=O` [Compound A-26]: the pest or weed control at 250 g/ha in assay [1] came out at 60%; in assay [2] it was 30%; in assay [3], 80%; in assay [4], 80%; in assay [5], 0%; in assay [6] it was 20%. Further, the pest or weed control at 250 g/ha in assay [7] is 80%; in assay [8], 0%.
For the compound `CCc1ccc(Oc2ccc(Br)cc2F)cc1C1=C(O)[C@H]2[C@H]3CC[C@H](C3)[C@H]2C1=O` [Compound A-27], the pest or weed control at 250 g/ha in assay [1] worked out at 60%; in assay [2] it was 80%; in assay [3], 80%; in assay [4] it was 70%; in assay [5] it was 20%; in assay [6], 40%. Moreover, the pest or weed control at 250 g/ha in assay [7] was 60%; in assay [8] it was 0%.
Consider `CCc1ccc(Oc2ccc(Br)cc2Cl)cc1C1=C(O)C2C(C1=O)[C@H]1CC[C@@H]2CC1` (some centres unmarked) [Compound A-28], for which the pest or weed control at 250 g/ha is 0% in assay [1]; 0% in assay [2]; 80% in assay [3]; 0% in assay [4]; 0% in assay [5]; 0% in assay [6]. Further, the figures for the pest or weed control at 250 g/ha in assay [7] and in assay [8] were 20% and 0%, respectively.
As for `CCc1ccc(Oc2ccc(Cl)cc2Cl)cc1C1=C(O)C2C(C1=O)[C@H]1CC[C@@H]2CC1` (some centres unmarked) [Compound A-29], the pest or weed control at 250 g/ha worked out at 60% in assay [1]; 0% in assay [2]; 100% in assay [3]; 0% in assay [4]; 0% in assay [5]; 0% in assay [6]. The pest or weed control at 250 g/ha in assay [7] is 50%; in assay [8], 0%.
For the compound `CCc1ccc(Oc2ccc(F)cc2)cc1C1=C(O)C2C(C1=O)[C@H]1CC[C@@H]2CC1` (some centres unmarked) [Compound A-30], the pest or weed control at 250 g/ha in assay [1] was 60%; in assay [2] it was 10%; in assay [3] it was 100%; in assay [4], 20%; in assay [5], 30%; in assay [6], 70%. The pest or weed control at 250 g/ha in assay [7] came out at 80%; in assay [8], 20%.
Turning to `CCc1ccc(Oc2ccc(Cl)cc2)cc1C1=C(O)C2C(C1=O)[C@H]1CC[C@@H]2CC1` (some centres unmarked) [Compound A-31], the pest or weed control at 250 g/ha in assay [1] is 100%; in assay [2], 40%; in assay [3], 100%; in assay [4], 80%; in assay [5] it was 20%; in assay [6], 50%. Further, the figures for the pest or weed control at 250 g/ha in assay [7] and in assay [8] were 90% and 0%, respectively.
On to `CCc1ccc(Oc2ccc(Cl)cc2F)cc1C1=C(O)C2C(C1=O)[C@H]1CC[C@@H]2CC1` (some centres unmarked) [Compound A-32], for which the pest or weed control at 250 g/ha in assay [1] was determined as 90%; in assay [2] it was 30%; in assay [3], 100%; in assay [4], 90%; in assay [5], 0%; in assay [6], 40%. Also, the pest or weed control at 250 g/ha in assay [7] turned out to be 60%; in assay [8] it was 0%.
For `CCc1ccc(Oc2ccc(Cl)c(F)c2)cc1C1=C(O)C2C(C1=O)[C@H]1CC[C@@H]2CC1` (some centres unmarked) [Compound A-33], the pest or weed control at 250 g/ha in assay [1] was determined as 90%; in assay [2] it was 0%; in assay [3], 100%; in assay [4] it was 90%; in assay [5] it was 20%; in assay [6] it was 50%. The pest or weed control at 250 g/ha came to 50% in assay [7] and 0% in assay [8].
Turning to `CCc1ccc(Oc2ccc(Br)cc2F)cc1C1=C(O)C2C(C1=O)[C@H]1CC[C@@H]2CC1` (some centres unmarked) [Compound A-34], the pest or weed control at 250 g/ha in assay [1] stood at 80%; in assay [2] it was 40%; in assay [3] it was 90%; in assay [4] it was 90%; in assay [5] it was 20%; in assay [6], 50%. In addition, the figures for the pest or weed control at 250 g/ha in assay [7] and in assay [8] were 70% and 30%, respectively.
`CCc1ccc(Oc2ccc(Br)cc2Cl)cc1C1=C(O)CCC1=O` [Compound A-35]: the pest or weed control at 250 g/ha in assay [1] amounted to 10%; in assay [2] it was 20%; in assay [3] it was 30%; in assay [4] it was 20%; in assay [5], 30%; in assay [6] it was 60%. Also, the results for the pest or weed control at 250 g/ha in assay [7] and in assay [8] were 20% and 10%, respectively.
Regarding `CCc1ccc(Oc2ccc(Br)cc2)cc1C1=C(O)CCC1=O` [Compound A-37], the pest or weed control at 250 g/ha was determined as 20% in assay [1]; 30% in assay [2]; 80% in assay [3]; 20% in assay [4]; 10% in assay [5]; 10% in assay [6]. The pest or weed control at 250 g/ha came to 20% in assay [7] and 0% in assay [8].
Turning to `CCc1ccc(Oc2ccc(Cl)cc2)cc1C1=C(O)CCC1=O` [Compound A-39], the pest or weed control at 250 g/ha was found to be 10% in assay [1]; 10% in assay [2]; 60% in assay [3]; 0% in assay [4]; 20% in assay [5]; 0% in assay [6]. Further, the pest or weed control at 250 g/ha turned out to be 40% in assay [7] and 30% in assay [8].
As to `CCc1ccc(Oc2ccc(Cl)cc2F)cc1C1=C(O)CCC1=O` [Compound A-40], the pest or weed control at 250 g/ha in assay [1] is 10%; in assay [2] it was 10%; in assay [3], 30%; in assay [4], 10%; in assay [5], 0%; in assay [6], 10%. In addition, the pest or weed control at 250 g/ha was found to be 40% in assay [7] and 0% in assay [8].

The values above are taken from patent US8895474B2, “Herbicidally active cyclopentanediones and derivatives thereof, and their use in controlling weeds” (Syngenta Limited, priority 2009, dated 2014).
